Assay results taken from PubChem BioAssay (NCI).
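Results reflect a 48-hour exposure of cells in 96-well plates to compound at five concentrations. Abbreviation: GI50, concentration required for 50% inhibition of growth. The concentration for full growth arrest is given as TGI.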

What was measured:
Assay in all cases: growth of human tumour cells (NCI), 48 h
SK-MEL-28 melanoma = system: SK-MEL-28 melanoma
HT29 colon = system: HT29 colon
HCT-15 colon = system: HCT-15 colon
OVCAR-8 ovarian = system: OVCAR-8 ovarian
HCC-2998 colon = system: HCC-2998 colon
A498 renal = system: A498 renal
RPMI-8226 leukemia = system: RPMI-8226 leukemia
SF-268 CNS = system: SF-268 CNS
SF-295 CNS = system: SF-295 CNS
MCF7 breast = system: MCF7 breast
SK-MEL-5 melanoma = system: SK-MEL-5 melanoma
DU-145 prostate = system: DU-145 prostate
UACC-257 melanoma = system: UACC-257 melanoma
CCRF-CEM leukemia = system: CCRF-CEM leukemia
K-562 leukemia = system: K-562 leukemia
SW-620 colon = system: SW-620 colon
HCT-116 colon = system: HCT-116 colon
COLO 205 colon = system: COLO 205 colon
U251 CNS = system: U251 CNS
T-47D breast = system: T-47D breast
MALME-3M melanoma = system: MALME-3M melanoma
SN12C renal = system: SN12C renal
SNB-75 CNS = system: SNB-75 CNS
LOX IMVI melanoma = system: LOX IMVI melanoma
SF-539 CNS = system: SF-539 CNS
RXF 393 renal = system: RXF 393 renal
NCI-H460 lung = system: NCI-H460 lung
TK-10 renal = system: TK-10 renal
ACHN renal = system: ACHN renal
UACC-62 melanoma = system: UACC-62 melanoma
EKVX NSCLC = system: EKVX NSCLC
KM12 colon = system: KM12 colon
SK-OV-3 ovarian = system: SK-OV-3 ovarian
NCI-H226 lung = system: NCI-H226 lung
OVCAR-5 ovarian = system: OVCAR-5 ovarian
SR leukemia = system: SR leukemia
786-0 renal = system: 786-0 renal
M14 melanoma = system: M14 melanoma
MDA-MB-231 breast = system: MDA-MB-231 breast
HOP-92 NSCLC = system: HOP-92 NSCLC
OVCAR-4 ovarian = system: OVCAR-4 ovarian
NCI/ADR-RES ovarian = system: NCI/ADR-RES ovarian
NCI-H23 lung = system: NCI-H23 lung
SNB-19 CNS = system: SNB-19 CNS
A549 NSCLC = system: A549 NSCLC
MOLT-4 leukemia = system: MOLT-4 leukemia
HL-60(TB) leukemia = system: HL-60(TB) leukemia
HOP-62 NSCLC = system: HOP-62 NSCLC
MDA-MB-435 = system: MDA-MB-435
UO-31 renal = system: UO-31 renal
IGROV1 ovarian = system: IGROV1 ovarian
CAKI-1 renal = system: CAKI-1 renal
OVCAR-3 ovarian = system: OVCAR-3 ovarian
PC-3 prostate = system: PC-3 prostate
HS 578T breast = system: HS 578T breast
NCI-H522 lung = system: NCI-H522 lung
SK-MEL-2 melanoma = system: SK-MEL-2 melanoma
BT-549 breast = system: BT-549 breast

c1ccc(CCN2CCc3[nH]c4ccccc4c3C2)cc1
TGI (SK-MEL-28 melanoma): 41.8 µM
TGI (HT29 colon): 28.5 µM
TGI (HCT-15 colon): 46.2 µM
TGI (OVCAR-8 ovarian): 44.7 µM
TGI (HCC-2998 colon): 30.5 µM
TGI (A498 renal): 33.3 µM
TGI (RPMI-8226 leukemia): > 10 µM
TGI (SF-268 CNS): > 100 µM
TGI (SF-295 CNS): 35.2 µM
TGI (MCF7 breast): 40.9 µM
TGI (SK-MEL-5 melanoma): 33.9 µM
TGI (DU-145 prostate): > 100 µM
TGI (UACC-257 melanoma): 30.4 µM
TGI (CCRF-CEM leukemia): > 100 µM
TGI (K-562 leukemia): 45.5 µM
TGI (SW-620 colon): 29.6 µM
TGI (HCT-116 colon): 28.7 µM
TGI (COLO 205 colon): > 10 µM
TGI (U251 CNS): 31.9 µM
TGI (T-47D breast): 51.5 µM
TGI (MALME-3M melanoma): 32.8 µM
TGI (SN12C renal): 62.2 µM
TGI (SNB-75 CNS): 68 µM
TGI (LOX IMVI melanoma): 35.4 µM
TGI (SF-539 CNS): 40 µM
TGI (RXF 393 renal): 34.3 µM
TGI (NCI-H460 lung): 30.9 µM
TGI (TK-10 renal): 51.7 µM
TGI (ACHN renal): 96.7 µM
TGI (UACC-62 melanoma): > 10 µM
TGI (EKVX NSCLC): > 100 µM
TGI (KM12 colon): 34.9 µM
TGI (SK-OV-3 ovarian): > 100 µM
TGI (NCI-H226 lung): 71.4 µM
TGI (OVCAR-5 ovarian): 67 µM
TGI (SR leukemia): 75.7 µM
TGI (786-0 renal): 31.6 µM
TGI (M14 melanoma): 34 µM
TGI (MDA-MB-231 breast): 87.7 µM
TGI (HOP-92 NSCLC): 34.6 µM
TGI (OVCAR-4 ovarian): > 100 µM
TGI (NCI/ADR-RES ovarian): 36.9 µM
TGI (NCI-H23 lung): > 100 µM
TGI (SNB-19 CNS): 41.8 µM
TGI (A549 NSCLC): 62.3 µM
TGI (MOLT-4 leukemia): 70.5 µM
TGI (HL-60(TB) leukemia): 41.7 µM
TGI (HOP-62 NSCLC): 45.6 µM
TGI (MDA-MB-435): 36 µM
TGI (UO-31 renal): 32 µM
TGI (IGROV1 ovarian): 67.8 µM

O=C(/C=C/C12c3ccccc3C(c3ccccc31)C1C(=O)N(c3ccccc3)C(=O)C12)c1ccccc1 (centres undefined)
GI50 (CAKI-1 renal): 1.5 µM
TGI (CAKI-1 renal): > 100 µM
GI50 (OVCAR-3 ovarian): 2.22 µM
TGI (OVCAR-3 ovarian): 7.09 µM
GI50 (SK-MEL-28 melanoma): 2.48 µM
TGI (SK-MEL-28 melanoma): 7.09 µM
GI50 (PC-3 prostate): 2.07 µM
TGI (PC-3 prostate): > 100 µM
GI50 (HT29 colon): 2.69 µM
TGI (HT29 colon): > 100 µM
GI50 (HCT-15 colon): 1.6 µM
TGI (HCT-15 colon): 10.6 µM
GI50 (OVCAR-8 ovarian): 1.79 µM
TGI (OVCAR-8 ovarian): > 100 µM
GI50 (HCC-2998 colon): 1.75 µM
TGI (HCC-2998 colon): 3.62 µM
GI50 (A498 renal): 0.763 µM
TGI (A498 renal): 2.2 µM
GI50 (RPMI-8226 leukemia): 1.55 µM
TGI (RPMI-8226 leukemia): 7.69 µM
GI50 (SF-268 CNS): 8.56 µM
TGI (SF-268 CNS): > 100 µM
GI50 (MCF7 breast): 1.48 µM
TGI (MCF7 breast): > 100 µM
GI50 (SK-MEL-5 melanoma): 2.29 µM
TGI (SK-MEL-5 melanoma): 6.21 µM
GI50 (DU-145 prostate): 2.14 µM
TGI (DU-145 prostate): 6.03 µM
GI50 (UACC-257 melanoma): 2.3 µM
TGI (UACC-257 melanoma): 39.2 µM
GI50 (CCRF-CEM leukemia): 1.45 µM
TGI (CCRF-CEM leukemia): > 100 µM
GI50 (K-562 leukemia): 1.39 µM
TGI (K-562 leukemia): > 100 µM
GI50 (SW-620 colon): 2.74 µM
TGI (SW-620 colon): > 100 µM
GI50 (HCT-116 colon): 0.695 µM
TGI (HCT-116 colon): 2.07 µM
GI50 (COLO 205 colon): 2.11 µM
TGI (COLO 205 colon): 4.85 µM
GI50 (U251 CNS): 2.48 µM
TGI (U251 CNS): 9.44 µM
GI50 (SN12C renal): 2.53 µM
TGI (SN12C renal): > 100 µM
GI50 (HS 578T breast): 2.32 µM
TGI (HS 578T breast): > 100 µM
GI50 (SNB-75 CNS): 2.39 µM
TGI (SNB-75 CNS): > 100 µM
GI50 (NCI-H522 lung): 1.59 µM
TGI (NCI-H522 lung): 4.45 µM
GI50 (LOX IMVI melanoma): 1.66 µM
TGI (LOX IMVI melanoma): 3.51 µM
GI50 (SF-539 CNS): 2.09 µM
TGI (SF-539 CNS): 5.14 µM
GI50 (RXF 393 renal): 1.21 µM
TGI (RXF 393 renal): 2.82 µM
GI50 (NCI-H460 lung): 1.92 µM
TGI (NCI-H460 lung): 4.69 µM
GI50 (TK-10 renal): 6.22 µM
TGI (TK-10 renal): > 100 µM
GI50 (ACHN renal): 1.63 µM
TGI (ACHN renal): 4.08 µM
GI50 (UACC-62 melanoma): 1.66 µM
TGI (UACC-62 melanoma): 4.94 µM
GI50 (EKVX NSCLC): 2.09 µM
TGI (EKVX NSCLC): > 100 µM
GI50 (KM12 colon): 2.64 µM
TGI (KM12 colon): > 100 µM
GI50 (SK-OV-3 ovarian): 28.3 µM
TGI (SK-OV-3 ovarian): > 100 µM
GI50 (NCI-H226 lung): 2.34 µM
TGI (NCI-H226 lung): 8.63 µM
GI50 (OVCAR-5 ovarian): 1.91 µM
TGI (OVCAR-5 ovarian): 5.02 µM
GI50 (SR leukemia): 2.02 µM
TGI (SR leukemia): > 100 µM
GI50 (786-0 renal): 2.89 µM
TGI (786-0 renal): > 100 µM
GI50 (SK-MEL-2 melanoma): 2.13 µM
TGI (SK-MEL-2 melanoma): 7.85 µM
GI50 (M14 melanoma): 2.51 µM
TGI (M14 melanoma): 10.1 µM
GI50 (MDA-MB-231 breast): 2.23 µM
TGI (MDA-MB-231 breast): 6.77 µM
GI50 (HOP-92 NSCLC): 1.26 µM
TGI (HOP-92 NSCLC): 3.75 µM
GI50 (OVCAR-4 ovarian): 2.94 µM
TGI (OVCAR-4 ovarian): > 100 µM
GI50 (NCI/ADR-RES ovarian): 2.23 µM
TGI (NCI/ADR-RES ovarian): > 100 µM
GI50 (NCI-H23 lung): 2.69 µM
TGI (NCI-H23 lung): 18.1 µM
GI50 (SNB-19 CNS): 3.08 µM
TGI (SNB-19 CNS): > 100 µM
GI50 (A549 NSCLC): 2.58 µM
TGI (A549 NSCLC): > 100 µM
GI50 (MOLT-4 leukemia): 1.23 µM
TGI (MOLT-4 leukemia): > 100 µM
GI50 (HL-60(TB) leukemia): 1.02 µM
TGI (HL-60(TB) leukemia): 8.66 µM
GI50 (HOP-62 NSCLC): 3.23 µM
TGI (HOP-62 NSCLC): 14.6 µM
GI50 (MDA-MB-435): 2.56 µM
TGI (MDA-MB-435): > 100 µM
GI50 (IGROV1 ovarian): 2.06 µM
TGI (IGROV1 ovarian): 6.05 µM
GI50 (BT-549 breast): 1.37 µM
TGI (BT-549 breast): 3.02 µM
